Measured values: ChEMBL document CHEMBL1122334, “New azacannabinoids highly active in the central nervous system” (1983)

Columns and labels:
Type in all cases: functional
Mus musculus [1] = experiment: The compound was tested for analgesic activity using writhing (W) test in mouse at a dose of 10 mg/Kg
Mus musculus [2] = experiment: The compound was tested for analgesic activity using writhing (W) test in mouse at a dose of 40 mg/Kg
Mus musculus [3] = experiment: The compound was tested for activity to decrease fighting in mouse at a dose of 20 mg/Kg
Mus musculus [4] = experiment: The compound was tested for activity to decrease fighting in mouse at a dose of 5 mg/Kg
Rattus norvegicus [5] = experiment: The compound was tested for serotonin antagonism in rat at a dose of 5 mg/Kg
Rattus norvegicus [6] = experiment: The compound was tested for serotonin antagonism in rat at a dose of 80 mg/Kg
Rattus norvegicus [7] = experiment: The compound was tested for analgesic activity using (RTF) tail-flick test at a dose of 40 mg/Kg
Rattus norvegicus [8] = experiment: The compound was tested for decreasing motor activity in rat at a dose of 20 mg/Kg
Rattus norvegicus [9] = experiment: The compound was tested for decreasing motor activity in rat at a dose of 80 mg/Kg
Rattus norvegicus [10] = experiment: The compound was tested for decreasing motor activity in rat. at a dose of 5 mg/Kg
Rattus norvegicus [11] = experiment: The compound was tested for methamphetamine antagonism in rat at a dose of 20 mg/Kg
Rattus norvegicus [12] = experiment: The compound was tested for methamphetamine antagonism in rat at a dose of 5 mg/Kg
Rattus norvegicus [13] = experiment: The compound was tested for serotonin antagonism in rat at a dose of 20 mg/Kg
Rattus norvegicus [14] = experiment: The compound was tested for hyperexcitability in rat at a dose of 20 mg/Kg
Rattus norvegicus [15] = experiment: The compound was tested for hyperexcitability in rat at a dose of 5 mg/Kg
Rattus norvegicus [16] = experiment: The compound was tested for hyperexcitability in rat at a dose of 80 mg/Kg
Rattus norvegicus [17] = experiment: The compound was tested for methamphetamine antagonism in rat at a dose of 80 mg/Kg
Mus musculus [18] = species: Mus musculus; experiment: The compound was tested for analgesic activity using writhing (W) test in mouse
Rattus norvegicus [19] = species: Rattus norvegicus; experiment: The compound was tested for analgesic activity using (RTF) tail-flick test in rat
Rattus norvegicus [20] = experiment: The compound was tested for decreasing motor activity in rat at a dose of 10 mg/Kg
Rattus norvegicus [21] = experiment: The compound was tested for decreasing motor activity in rat at a dose of 5 mg/Kg
Rattus norvegicus [22] = experiment: The compound was tested for analgesic activity using (RTF) tail-flick test in rat at a dose of 20 mg/Kg
Rattus norvegicus [23] = experiment: The compound was tested for hyperexcitability in rat. at a dose of 80 mg/Kg
Rattus norvegicus [24] = experiment: The compound was tested for analgesic activity using (RTF) tail-flick test in rat at a dose of 40 mg/Kg
Mus musculus [25] = experiment: The compound was tested for analgesic activity using writhing (W) test in mouse at a dose of 51 mg/Kg
Rattus norvegicus [26] = experiment: The compound was tested for hyper excitability in rat at a dose of 20 mg/Kg
Rattus norvegicus [27] = experiment: The compound was tested for hyper excitability in rat at a dose of 80 mg/Kg
Rattus norvegicus [28] = experiment: The compound was tested for hyperexcitability in rat. at a dose of 5 mg/Kg
Mus musculus [29] = experiment: The compound was tested for activity to decrease fighting in mouse at a dose of 10 mg/Kg
Rattus norvegicus [30] = experiment: The compound was tested for hyperexcitability in rat at a dose of 10 mg/Kg
Mus musculus [31] = species: Mus musculus; experiment: The compound was tested for activity to decrease fighting in mouse
Rattus norvegicus [32] = experiment: The compound was tested for decreasing motor activity in rat at a dose of 2 mg/Kg
Rattus norvegicus [33] = experiment: The compound was tested for methamphetamine antagonism in rat at a dose of 1 mg/Kg
Rattus norvegicus [34] = experiment: The compound was tested for methamphetamine antagonism in rat at a dose of 2 mg/Kg
Rattus norvegicus [35] = experiment: The compound was tested for serotonin antagonism in rat at a dose of 1 mg/Kg
Rattus norvegicus [36] = experiment: The compound was tested for serotonin antagonism in rat at a dose of 2 mg/Kg
Rattus norvegicus [37] = experiment: The compound was tested for decreasing motor activity in rat at a dose of 1 mg/Kg
Rattus norvegicus [38] = experiment: The compound was tested for decreasing motor activity in rat at a dose of 4 mg/Kg

CCCCCC(C)C(C)c1cc(O)c2c(c1)OC(C)(C)C1=C2CN(CC(N)=O)CC1 (stereo not given)
increase in response (Mus musculus [1]): 6% | increase in response (Mus musculus [2]): 82% | Decrease in fighting (Mus musculus [3]): 21% | Decrease in fighting (Mus musculus [4]): 10% | Decrease in activity (Rattus norvegicus [5]): 71% | Decrease in activity (Rattus norvegicus [6]): 78% | increase in response (Rattus norvegicus [7]): 132% | Decrease in activity (Rattus norvegicus [8]): 78% | Decrease in activity (Rattus norvegicus [9]): 86% | Decrease in activity (Rattus norvegicus [10]): 28% | Decrease in activity (Rattus norvegicus [11]): 58% | Decrease in activity (Rattus norvegicus [12]): 42% | Decrease in activity (Rattus norvegicus [13]): 83% | Possible response (Rattus norvegicus [14]): 79% | Possible response (Rattus norvegicus [15]): 65% | Possible response (Rattus norvegicus [16]): 98% | Decrease in activity (Rattus norvegicus [17]): 71%

CCCCCc1cc(O)c2c(c1)OC(C)(C)[C@@H]1CCC(C)=C[C@@H]21 [DRONABINOL]
ED50 (Mus musculus [18]): 43 mg/kg | Decrease in fighting (Mus musculus [4]): 36% | ED50 (Rattus norvegicus [19]): 27 mg/kg | Decrease in activity (Rattus norvegicus [20]): 41% | Decrease in activity (Rattus norvegicus [8]): 72% | Decrease in activity (Rattus norvegicus [21]): 15% | Possible response (Rattus norvegicus [14]): 100% | Possible response (Rattus norvegicus [15]): 29%

CCCCCC(C)C(C)c1cc(O)c2c(c1)OC(C)(C)C1=C2CN(CC(=O)NC)CC1 (stereo not given)
ED50 (Mus musculus [18]): 5.1 mg/kg | Decrease in fighting (Mus musculus [3]): 34% | Decrease in fighting (Mus musculus [4]): 11% | Decrease in activity (Rattus norvegicus [5]): -54% | Decrease in activity (Rattus norvegicus [6]): 97% | increase in response (Rattus norvegicus [22]): 92% | Decrease in activity (Rattus norvegicus [8]): 66% | Decrease in activity (Rattus norvegicus [21]): 33% | Decrease in activity (Rattus norvegicus [9]): 93% | Decrease in activity (Rattus norvegicus [11]): 72% | Decrease in activity (Rattus norvegicus [12]): 72% | Decrease in activity (Rattus norvegicus [13]): 21% | Possible response (Rattus norvegicus [14]): 100% | Possible response (Rattus norvegicus [15]): 92% | Possible response (Rattus norvegicus [23]): 100% | Decrease in activity (Rattus norvegicus [17]): 72%

CCCCCC(C)C(C)c1cc(O)c2c(c1)OC(C)(C)C1=C2CN(CC(=O)N(C)C)CC1 (stereo not given)
increase in response (Mus musculus [1]): 19% | increase in response (Mus musculus [2]): 86% | Decrease in fighting (Mus musculus [3]): 13% | Decrease in fighting (Mus musculus [4]): 10% | increase in response (Rattus norvegicus [24]): 84% | Decrease in activity (Rattus norvegicus [8]): 65% | Decrease in activity (Rattus norvegicus [9]): 78% | Decrease in activity (Rattus norvegicus [10]): 53% | Decrease in activity (Rattus norvegicus [11]): -36% | Decrease in activity (Rattus norvegicus [12]): -43% | Possible response (Rattus norvegicus [14]): 13% | Possible response (Rattus norvegicus [15]): 0% | Possible response (Rattus norvegicus [16]): 69% | Decrease in activity (Rattus norvegicus [17]): 26%

CC(CCCc1ccc(F)cc1)c1cc(O)c2c(c1)OC(C)(C)C1=C2CN(CC(=O)N(C)C)CC1 (stereo not given)
increase in response (Mus musculus [1]): 24% | Decrease in fighting (Mus musculus [3]): 12% | Decrease in fighting (Mus musculus [4]): 3% | Decrease in activity (Rattus norvegicus [5]): 11% | Decrease in activity (Rattus norvegicus [6]): 55% | Decrease in activity (Rattus norvegicus [8]): 27% | Decrease in activity (Rattus norvegicus [9]): 68% | Decrease in activity (Rattus norvegicus [10]): 0% | Decrease in activity (Rattus norvegicus [11]): 34% | Decrease in activity (Rattus norvegicus [12]): -35% | Decrease in activity (Rattus norvegicus [13]): 12% | Possible response (Rattus norvegicus [14]): 10% | Possible response (Rattus norvegicus [15]): 0% | Possible response (Rattus norvegicus [16]): 69% | Decrease in activity (Rattus norvegicus [17]): 54%

CCCCCC(C)C(C)c1cc(O)c2c(c1)OC(C)(C)C1=C2CN(CC(=O)OCC)CC1 (stereo not given)
increase in response (Mus musculus [1]): 35% | increase in response (Mus musculus [25]): 51% | Decrease in activity (Rattus norvegicus [5]): 60% | Decrease in activity (Rattus norvegicus [6]): 89% | Decrease in activity (Rattus norvegicus [8]): 19% | Decrease in activity (Rattus norvegicus [21]): 49% | Decrease in activity (Rattus norvegicus [9]): 60% | Decrease in activity (Rattus norvegicus [11]): 54% | Decrease in activity (Rattus norvegicus [12]): 18% | Decrease in activity (Rattus norvegicus [13]): 56% | Possible response (Rattus norvegicus [26]): 12% | Possible response (Rattus norvegicus [27]): 81% | Possible response (Rattus norvegicus [28]): 0% | Decrease in activity (Rattus norvegicus [17]): 81%

CNC(=O)CN1CCC2=C(C1)c1c(O)cc(C(C)CCCc3ccc(F)cc3)cc1OC2(C)C (stereo not given)
increase in response (Mus musculus [1]): 71% | Decrease in fighting (Mus musculus [3]): 93% | Decrease in fighting (Mus musculus [4]): 56% | Decrease in activity (Rattus norvegicus [5]): 6% | Decrease in activity (Rattus norvegicus [6]): 92% | Decrease in activity (Rattus norvegicus [8]): 66% | Decrease in activity (Rattus norvegicus [9]): 94% | Decrease in activity (Rattus norvegicus [10]): 73% | Decrease in activity (Rattus norvegicus [11]): 63% | Decrease in activity (Rattus norvegicus [12]): 51% | Decrease in activity (Rattus norvegicus [13]): 63% | Possible response (Rattus norvegicus [14]): 100% | Possible response (Rattus norvegicus [15]): 92% | Possible response (Rattus norvegicus [16]): 100% | Decrease in activity (Rattus norvegicus [17]): 73%

C#CCN1CCC2=C(C1)c1c(O)cc(C(C)C(C)CCCCC)cc1OC2(C)C (stereo not given)
ED50 (Mus musculus [18]): 4.3 mg/kg | Decrease in fighting (Mus musculus [29]): 62% | Decrease in fighting (Mus musculus [4]): 48% | ED50 (Rattus norvegicus [19]): 14 mg/kg | Decrease in activity (Rattus norvegicus [5]): 81% | Decrease in activity (Rattus norvegicus [6]): 33% | Decrease in activity (Rattus norvegicus [20]): 51% | Decrease in activity (Rattus norvegicus [11]): 80% | Decrease in activity (Rattus norvegicus [12]): 59% | Decrease in activity (Rattus norvegicus [13]): 84% | Possible response (Rattus norvegicus [30]): 71% | Possible response (Rattus norvegicus [15]): 29% | Decrease in activity (Rattus norvegicus [17]): 73%

CC(CCCc1ccc(F)cc1)c1cc(O)c2c(c1)OC(C)(C)C1=C2CN(CC(=O)NC(N)=O)CC1 (stereo not given)
ED50 (Mus musculus [31]): 2 mg/kg | ED50 (Mus musculus [18]): 0.7 mg/kg | ED50 (Rattus norvegicus [19]): 1.6 mg/kg | Decrease in activity (Rattus norvegicus [32]): 88% | Decrease in activity (Rattus norvegicus [10]): 55% | Decrease in activity (Rattus norvegicus [33]): 64% | Decrease in activity (Rattus norvegicus [34]): 75% | Decrease in activity (Rattus norvegicus [35]): 50% | Decrease in activity (Rattus norvegicus [36]): 72% | Possible response (Rattus norvegicus [14]): 90% | Possible response (Rattus norvegicus [15]): 46% | Possible response (Rattus norvegicus [16]): 100%

C#CCN1CCC2=C(C1)c1c(O)cc(C(C)CCCc3ccc(F)cc3)cc1OC2(C)C (stereo not given)
ED50 (Mus musculus [18]): 5.3 mg/kg | Decrease in fighting (Mus musculus [29]): 47% | Decrease in fighting (Mus musculus [4]): -29% | ED50 (Rattus norvegicus [19]): 3.7 mg/kg | Decrease in activity (Rattus norvegicus [37]): 60% | Decrease in activity (Rattus norvegicus [38]): 77% | Decrease in activity (Rattus norvegicus [11]): 34% | Decrease in activity (Rattus norvegicus [12]): 8% | Possible response (Rattus norvegicus [14]): 100% | Possible response (Rattus norvegicus [15]): 60% | Decrease in activity (Rattus norvegicus [17]): 84%
